pEC50, pIC50: −log10 of the molar value. Bounds are passed on as bounds.

We go through 16 compounds from patent US20260242352A1, “INHIBITION OF SHIP1 AS A THERAPEUTIC STRATEGY FOR THE TREATMENT OF ALZHEIMER'S DISEASE” (The Trustees of Indiana University, priority 2022, published 2026).

For data set [1], the system named is phosphorylated and total AKT (pAKT/tAKT) in THP1 cells. Put plainly: PhosphoAKT assay. The class given is cell-based. The conditions noted are these: Homo sapiens, THP-1, 1.5 h, 90 minutes, pAKT (S473)/tAKT ratio, (n) in cell. As to the method: PhosphoAKT assay. THP1 cells were treated with inhibitors for 90 minutes and then the levels of phosphorylated and total AKT (pAKT/tAKT) were detected using the Perkin Elmer Alpha SureFire Ultra Multiplex PhosphoAKT (S473) kit according to the manufacturer's directions. IC50 values were calculated by fitting the ratio of pATK/tAKT versus inhibitor concentration.
THP1 cells were treated with inhibitors for 90 minutes and then the levels of phosphorylated and total AKT (pAKT/tAKT) were detected using the Perkin Elmer Alpha SureFire Ultra Multiplex PhosphoAKT (S473) kit according to the manufacturer's directions. IC50 values were calculated by fitting the ratio of pATK/tAKT versus inhibitor concentration.

Data set [2] concerns BV2 cells. Nature of the data set: pHrodo-myelin phagocytosis/cell health assay, BV2 cells. The settings on record: Mus musculus, BV-2, compound 48 hrs, 60 μM to 3 nM, (n) in cell. The class given is cell-based. As to the method:
pHrodo-myelin phagocytosis/cell health assay with microglial cells. This 384-well plate high content imaging assay was developed to quantify phagocytosis and cell health simultaneously using either BV2 or HMC3 immortalized microglial cell lines or primary microglia isolated from mouse brain. Cells were cultured in DMEM GlutaMax media (ThermoFisher) containing 10% FBS and Pen-Strep in 37° C. 5% CO2 incubator.
Day 1: Cells were plated (Corning Falcon 384 well Optilux Black and clear bottom plates for imaging) with BV2 at 400 cells/45 μl/well, HMC3 at 600 cells/45 μl/well, or primary at 2000 cell/45 μl/well.
Day 2: Cells were treated with 10× serially diluted compounds in a dose range of 60 μM to 3 nM for 48 hrs at 37° C.
Day 3: Cells were seeded with pHrodo-myelin (for total 20 hrs) 24 hrs after starting compound treatment. The pHrodo-myelin stocks were at 1 mg/ml (protein equivalent) stored in −20° C. or −80° C. freezer. Stocks were thawed and diluted with culture media into 10× seeding solution (50 μg/ml) and added 5 μl/well to 384 well cell plate.
Day 4: Cell staining and imaging. Nuclear staining solution was prepared by adding 1 μl of 10 mg/mL Hoechst-33342 to every 1 ml culture media that will be added to cell plate at 20 μl/well. The final concentration of Hoechst-33342 to cells was about 2.5 μg/ml. Cell plates were incubated for >30 min at 37° C. before imaging. Cell plates were scanned with an ArrayScan automatic high content imaging system using a 10× objective lens, 4 fields/well collected. Three measurements were obtained 1) mean total phagocytosis spot intensity per cell, 2) total cell counts per well, and 3) mean average nuclear intensity per cell for cell health.
This 384-well plate high content imaging assay was developed to quantify phagocytosis and cell health simultaneously using either BV2 or HMC3 immortalized microglial cell lines or primary microglia isolated from mouse brain. Cells were cultured in DMEM GlutaMax media (ThermoFisher) containing 10% FBS and Pen-Strep in 37° C. 5% CO2 incubator. Day 1: Cells were plated (Corning Falcon 384 well Optilux Black and clear bottom plates for imaging) with BV2 at 400 cells/45 μl/well, HMC3 at 600 cells/45 μl/well, or primary at 2000 cell/45 μl/well. Day 2: Cells were treated with 10× serially diluted compounds in a dose range of 60 μM to 3 nM for 48 hrs at 37° C. Day 3: Cells were seeded with pHrodo-myelin (for total 20 hrs) 24 hrs after starting compound treatment. The pHrodo-myelin stocks were at 1 mg/ml (protein equivalent) stored in −20° C. or −80° C. freezer. Stocks were thawed and diluted with culture media into 10× seeding solution (50 μg/ml) and added 5 μl/well to 384 well cell plate. Day 4: Cell staining and imaging. Nuclear staining solution was prepared by adding 1 μl of 10 mg/mL Hoechst-33342 to every 1 ml culture media that will be added to cell plate at 20 μl/well. The final concentration of Hoechst-33342 to cells was about 2.5 μg/ml. Cell plates were incubated for >30 min at 37° C. before imaging. Cell plates were scanned with an ArrayScan automatic high content imaging system using a 10× objective lens, 4 fields/well collected. Three measurements were obtained 1) mean total phagocytosis spot intensity per cell, 2) total cell counts per well, and 3) mean average nuclear intensity per cell for cell health.

For data set [3], the system named is primary mouse microglia. Nature of the data set: Phagocytosis in primary mouse microglia. The data set is classed as cell-based. The conditions noted are these: pHrodo-myelin. The procedure:
Activity of Compound 9 in primary mouse microglia. Cortical tissue from C57BL/6J neonatal mice (P0-P3) was homogenized in Dulbecco's Modified Eagle Medium (DMEM), filtered through 250 and 100 μm mesh, and cultured in Advanced DMEM/F12 supplemented with 10% fetal bovine serum, 1× GlutaMAX and 1× Penicillin/Streptomycin. At 21 days in vitro (DIV), the cultures were subjected to mild trypsinization using 0.083% Trypsin-EDTA in DMEM for 30 mins to detach an intact layer of astrocytes. The microglia attached to the bottom were used as described in pHrodo-myelin phagocytosis assay to measure phagocytosis and cell health. The activity of Compound 10 in primary mouse microglia was obtained in a similar manner to Compound 9. Cortical tissue from C57BL/6J neonatal mice (P0-P3) was homogenized in Dulbecco's Modified Eagle Medium (DMEM), filtered through 250 and 100 μm mesh, and cultured in Advanced DMEM/F12 supplemented with 10% fetal bovine serum, 1× GlutaMAX and 1× Penicillin/Streptomycin. At 21 days in vitro (DIV), the cultures were subjected to mild trypsinization using 0.083% Trypsin-EDTA in DMEM for 30 mins to detach an intact layer of astrocytes. The microglia attached to the bottom were used as described in Example 13 to measure myelin phagocytosis and cell health. The results are depicted in FIG. 3. Primary Mouse Microglia of compound 10 was obtained in a similar manner to compound 9. The results are depicted in FIG. 3.

Data set [4] can be described thus: Pharmacokinetics in C57BL/6J mice. The data set is classed as in vivo, mouse. The settings on record: dosed orally at 100 mg/kg. As to the method: Pharmacokinetics of Compound 9. Compound 9 was formulated at 5 mg/ml in HPMC (1%)/Tween 80 (0.25%)/purified water. Male C57BL/6J mice aged 8-12 weeks from The Jackson Laboratory were dosed (100 mg/kg, 20 ml/kg) via oral gavage. Plasma exposures at 0.5, 1, 2, 4, 6, 8, 12 hr and terminal at 24 hr were obtained. Brain exposures were obtained at terminal 4 and 24 hrs. The pharmacokinetics of Compound 10 was obtained in a similar manner to Compound 9. Compound was formulated in hydroxyethylcellulose (1%)/Tween 80 (0.25%)/antifoam (0.050%)/water (purified) at a concentration of 5 mg/ml. 100 mg/kg, 20 ml/kg was dosed via oral gavage. Plasma exposures at 0.25, 0.5, 1, 2, 8 hr and terminal at 24 hrs were obtained. Brain exposures were obtained at terminal 4 and 24 hrs. The results are depicted in FIG. 4. Pharmacokinetics of compound 10 in C57BL/6J Mice were obtained in a similar manner as compound 9. The results are depicted in FIG. 4.

Turning to `Cc1ccccc1COc1cncc(-c2cnn(C3CCNCC3)c2)c1` [Compound 25, 3-[(2-Methylphenyl)methoxy]-5-[1-(piperidin-4-yl)-1H-pyrazol-4-yl]pyridine], the pIC50 in data set [1] was 4.23.

As for `C[C@H](Oc1cncc(-c2cnn(C3CCNCC3)c2)c1)c1ccccc1Cl` [Compound 21, (S)-3-(1-(2-chlorophenyl)ethoxy)-5-(1-(piperidin-4-yl)-1H-pyrazol-4-yl)pyridine], the pEC50 in data set [2] was 6.40.

Regarding `CC(C)(C)OC(=O)N1CCC(n2cc(-c3cncc(OCc4ccccc4F)c3)cn2)CC1` [Compound 2, tert-butyl 4-(4-(5-((2-fluorobenzyl)oxy)pyridin-3-yl)-1H-pyrazol-1-yl)piperidine-1-carboxylate], the pEC50 in data set [2] is 5.81.

For `Clc1ccccc1COc1cncc(-c2ccn(C3CCNCC3)n2)c1` [Compound 26, 3-((2-chlorobenzyl)oxy)-5-(1-(piperidin-4-yl)-1H-pyrazol-3-yl)pyridine], in data set [1], the pIC50 is 5.11.

Turning to `Clc1ccccc1COc1cccc(-c2cnn(C3CCNCC3)c2)c1` [Compound 29, 4-(4-(3-((2-chlorobenzyl)oxy)phenyl)-1H-pyrazol-1-yl)piperidine], the pIC50 in data set [1] was 5.18.

With `CC(C)(C)CCN1CCC(n2cc(-c3cncc(OCc4ccccc4Cl)c3)cn2)CC1` [Compound 15, 3-((2-chlorobenzyl)oxy)-5-(1-(1-(3,3-dimethylbutyl)piperidin-4-yl)-1H-pyrazol-4-yl)pyridine], in data set [1], the pIC50 is 4.75. Moreover, the pEC50 in data set [2] is 5.65.

As for `Cl.Clc1ccc(COc2cncc(-c3cnn(C4CCNCC4)c3)c2)c(Cl)c1` [Compound 10, 3-((2,4-dichlorobenzyl)oxy)-5-(1-(piperidin-4-yl)-1H-pyrazol-4-yl)pyridine hydrochloride], the pIC50 in data set [1] was 5.19. For the same compound, in data set [3], the pEC50 is 6.27 and the increased phagocytosis was 1.5 fold. Further, in data set [4], the exposure in brain was 6 µM and the exposure in plasma amounted to 2 µM. Further, the pEC50 in data set [2] is 5.76.

In the case of `Clc1ccccc1COc1cncc(-n2ccc(C3CCNCC3)n2)c1` [Compound 27, 3-((2-chlorobenzyl)oxy)-5-(3-(piperidin-4-yl)-1H-pyrazol-1-yl)pyridine], the negative-log IC50 (pIC50) in data set [1] was less than 4.22.

For `C[C@@H](Oc1cncc(-c2cnn(C3CCNCC3)c2)c1)c1ccc(Cl)cc1` [Compound 23, (R)-3-(1-(4-chlorophenyl)ethoxy)-5-(1-(piperidin-4-yl)-1H-pyrazol-4-yl)pyridine], in data set [1], the pIC50 is 5.39. This compound also had a pEC50 in data set [2] of 5.59.

For the compound `Cc1ccccc1COc1cncc(-c2cnn(C3CCN(C(=O)OC(C)(C)C)CC3)c2)c1` [Compound 3, tert-butyl 4-(4-(5-((2-methylbenzyl)oxy)pyridin-3-yl)-1H-pyrazol-1-yl)piperidine-1-carboxylate], the pIC50 in data set [1] was 4.51. Also, the pEC50 in data set [2] is 5.99.

Regarding `Clc1ccccc1COc1cncc(-n2cc(C3CCNCC3)cn2)c1` [Compound 28, 3-((2-chlorobenzyl)oxy)-5-(4-(piperidin-4-yl)-1H-pyrazol-1-yl)pyridine], in data set [1], the pIC50 is 5.25.

Consider `CC(C)(C)OC(=O)N1CCC(n2cc(-c3cncc(OCc4ccccc4Cl)c3)cn2)CC1` [Compound 1, tert-butyl 4-(4-{5-[(2-chlorophenyl)methoxy]pyridin-3-yl}-1H-pyrazol-1-yl)piperidine-1-carboxylate], for which the pEC50 in data set [2] is 5.63.

In turn, `CC(C)(C)OC(=O)N1CCC(n2cc(-c3cncc(OCc4ccc(Br)cc4)c3)cn2)CC1` [Compound 7, tert-butyl 4-(4-(5-((4-bromobenzyl)oxy)pyridin-3-yl)-1H-pyrazol-1-yl)piperidine-1-carboxylate] had a pEC50 in data set [2] of 6.12.

Consider `Cl.Clc1ccccc1COc1cncc(-c2cnn(C3CCNCC3)c2)c1` [Compound 9, 3-((2-chlorobenzyl)oxy)-5-(1-(piperidin-4-yl)-1H-pyrazol-4-yl)pyridine hydrochloride], for which, in data set [3], the pEC50 was 5.89 and the increased phagocytosis is given as 1.8 fold. Besides, in data set [4], the exposure in brain came to 0.5 µM and the exposure in plasma is 5 µM. This compound gave a pEC50 in data set [2] of 6.13.

As for `CC(C)(C)CC(=O)N1CCC(n2cc(-c3cncc(OCc4ccccc4Cl)c3)cn2)CC1` [Compound 16, 1-(4-(4-(5-((2-chlorobenzyl)oxy)pyridin-3-yl)-1H-pyrazol-1-yl)piperidin-1-yl)-3,3-dimethylbutan-1-one], in data set [1], the pIC50 is less than 4.22. In data set [2], this compound gave a pEC50 of 5.93.

As for `CC(C)(C)OC(=O)N1CCC(n2cc(-c3cncc(OCc4ccccc4)c3)cn2)CC1` [Compound 4, tert-butyl 4-(4-(5-(benzyloxy)pyridin-3-yl)-1H-pyrazol-1-yl)piperidine-1-carboxylate], the pIC50 in data set [1] is 4.50. In addition, the pEC50 in data set [2] is 5.49.

Usually pIC50 stands for −log10 of the IC50, conventionally taken in molar units. Usually pEC50 stands for the negative decadic logarithm of the EC50, by convention in mol/L.
